Results as given in patent US4201781A, “Substituted 7[s-oxopyrido[2,3-d]pyrimidine carboxamido acetamido]cephalosporins” (Dainippon Pharmaceutical Co., Ltd., priority 1977, dated 1980).
In brackets after ≈: the same amount, converted by molar mass. Like-named read-outs stand apart in the source and are kept apart here.

Experiments:
[1] = tested on: Salmonella enteritidis No. 1891; experiment: In vitro antibacterial activity (MIC); assay type: cell-based; settings: Salmonella enterica, read-out: minimum inhibitory concentration (MIC)
Excerpt: (§1) The numerals in the table show minimum inhibitory concentrations (MIC)

[2] = tested on: Proteus morganii Kono; experiment: In vitro antibacterial activity (MIC); assay type: cell-based; settings: Morganella morganii, read-out: minimum inhibitory concentration (MIC)
Excerpt: as §1

[3] = tested on: Serratia marcescens IFO 3736; experiment: In vitro antibacterial activity (MIC); assay type: cell-based
Excerpt: as §1

[4] = tested on: Pseudomonas aeruginosa Tsuchijima; experiment: In vitro antibacterial activity (MIC); assay type: cell-based; settings: read-out: minimum inhibitory concentration (MIC)
Excerpt: as §1

[5] = tested on: Enterobacter cloacae P-2540; experiment: In vitro antibacterial activity (MIC); assay type: cell-based
Excerpt: as §1

[6] = tested on: Escherichia coli P-5101; experiment: In vitro antibacterial activity (MIC); assay type: cell-based
Excerpt: as §1

[7] = tested on: Staphylococcus aureus 209P JC-1; experiment: In vitro antibacterial activity (MIC); assay type: cell-based; settings: read-out: minimum inhibitory concentration (MIC)
Excerpt: as §1

[8] = tested on: Pseudomonas aeruginosa No. 12; experiment: In vitro antibacterial activity (MIC); assay type: cell-based
Excerpt: as §1

[9] = tested on: Escherichia coli NIHJ JC-2; experiment: In vitro antibacterial activity (MIC); assay type: cell-based
Excerpt: as §1

[10] = tested on: Corynebacterium pyrogenes C-21; experiment: In vitro antibacterial activity (MIC); assay type: cell-based
Excerpt: as §1

[11] = tested on: Klebsiella pneumoniae No. 13; experiment: In vitro antibacterial activity (MIC); assay type: cell-based
Excerpt: as §1

[12] = tested on: Proteus mirabilis P-2381; experiment: In vitro antibacterial activity (MIC); assay type: cell-based
Excerpt: as §1

[13] = tested on: Staphylococcus aureus No. 50774; experiment: In vitro antibacterial activity (MIC); assay type: cell-based
Excerpt: as §1

[14] = tested on: Salmonella typhimurium S-9; experiment: In vitro antibacterial activity (MIC); assay type: cell-based; settings: Salmonella enterica, read-out: minimum inhibitory concentration (MIC)
Excerpt: as §1

[15] = tested on: Streptococcus pyrogenes 65A; experiment: In vitro antibacterial activity (MIC); assay type: cell-based; settings: read-out: minimum inhibitory concentration (MIC)
Excerpt: as §1

[16] = Solubility in water; assay type: physicochemical; settings: for solubility: deionized water at 25° C.; for Solubility in water (in words): water / deionized water / aqueous medium
Description: |Solubility in deionized water at 25° C.

[17] = tested on: Pseudomonas aeruginosa No. 12; experiment: In vivo efficacy against systemic infection in mice; set-up: species or system male mice (ddY); settings: read-out: ED50 (median effective dose)
Description: (§2) Compounds 1,2, A and B were each dissolved in deionized water to prepare injectable solutions having various concentrations.
(§3) Each of the injectable solutions was administered to mice infected with each of the bacteria described below under the conditions described below, and the median effective doses (ED50) obtained are shown in Table II. […]
(§4) male mice (ddY) weighing about 20 g
(3) Pseudomonas aeruginosa No. 12; Intraperitoneal infection with 50 to 100 LD50 (about 5×10^3 cells/mouse) of a bacterial suspension in trypto-soy broth with 4% mucin. twice, about 5 minutes and 6 hours after infection. […]
(§5) Note; The numerals in the table show ED50 (mg/kg). ED50 values
(§6) were calculated in accordance with the BehrensKaerber method (Arch. Exp.

[18] = Acute toxicity in mice; settings: mouse, in vivo, read-out: LD50 (median lethal dose)
Description: Injectable solutions containing compounds 1, 2 and compound A in various concentrations were administered to male mice (ddY) (4 to 8 in each group) in a dose of 0.1 ml per 10 g of body weight. The number of dead mice was counted after a lapse of 7 days, and the value of median lethal dose (LD50, mg/kg) was calculated.
Note: The LD50 values were calculated in accordance with the […]

[19] = tested on: Staphylococcus aureus No. 50774; experiment: In vivo efficacy against systemic infection in mice; set-up: species or system male mice (ddY); settings: read-out: ED50 (median effective dose)
Description: as §2, §3, §4
(1) Staphylococcus aureus No. 50774; Intravenous infection with 50 to 100 LD50 (about 5×10^8 cells/mouse) of a bacterial suspension in saline. twice, about 5 minutes and 6 hours after infection. […]
as §5, §6

[20] = tested on: Shigella flexneri 4a P-330; experiment: In vitro antibacterial activity (MIC); assay type: cell-based
Excerpt: as §1
(§7) *Clinically isolated Cephalexinresistant strain.

[21] = tested on: Escherichia coli P-140a; experiment: In vitro antibacterial activity (MIC); assay type: cell-based; settings: for MIC: Escherichia coli, read-out: minimum inhibitory concentration (MIC)
Excerpt: as §1, §7

[22] = tested on: Shigella flexneri 2a; experiment: In vitro antibacterial activity (MIC); assay type: cell-based; settings: read-out: minimum inhibitory concentration (MIC)
Excerpt: as §1, §7

[23] = tested on: Gram-negative and Gram-positive bacteria; experiment: Antibacterial activity (general statement)
[24] = tested on: Escherichia coli P-5101; experiment: In vivo efficacy against systemic infection in mice; set-up: species or system male mice (ddY); settings: read-out: ED50 (median effective dose)
Description: as §2
Each of the injectable solutions was administered to mice infected with each of the bacteria described below under the conditions described below, and the median effective doses (ED50) obtained are shown in Table II.
as §4
(2) Escherichia coli P-5101; Intraperitoneal infection with 50 to 100 LD50 (about 9×10^6 cells/mouse) of a bacterial suspension in trypto-soy broth with 4% mucin.
twice, about 5 minutes and 6 hours after infection.
as §5, §6

[25] = Enterobacter cloacae, P2540, read-out: minimum inhibitory concentration (MIC)
[26] = Pseudomonas aeruginosa, NO.12, read-out: minimum inhibitory concentration (MIC)
[27] = Escherichia coli, NIHJJC2, read-out: minimum inhibitory concentration (MIC)
[28] = Proteus mirabilis, P2381, read-out: minimum inhibitory concentration (MIC)
[29] = Staphylococcus aureus, NO.50774, read-out: minimum inhibitory concentration (MIC)
[30] = Salmonella enteritidis No. 1891, in vitro
[31] = Proteus morganii Kono, in vitro
[32] = IFO3736, Serratia marcescens IFO 3736, in vitro, read-out: minimum inhibitory concentration (MIC)
[33] = P2540, Enterobacter cloacae P-2540, in vitro, read-out: minimum inhibitory concentration (MIC)
[34] = P5101, Escherichia coli P-5101, in vitro, read-out: minimum inhibitory concentration (MIC)
[35] = Staphylococcus aureus 209P JC-1, in vitro
[36] = Pseudomonas aeruginosa No. 12, in vitro, read-out: minimum inhibitory concentration (MIC)
[37] = NIHJJC2, Escherichia coli NIHJ JC-2, in vitro, read-out: minimum inhibitory concentration (MIC)
[38] = C21, Corynebacterium pyrogenes C-21, in vitro, read-out: minimum inhibitory concentration (MIC)
[39] = Klebsiella pneumoniae No. 13, in vitro, read-out: minimum inhibitory concentration (MIC)
[40] = P2381, Proteus mirabilis P-2381, in vitro, read-out: minimum inhibitory concentration (MIC)
[41] = Staphylococcus aureus No. 50774, in vitro, read-out: minimum inhibitory concentration (MIC)
[42] = Streptococcus pyrogenes 65A, in vitro
[43] = NO.12, 168 h, mice, po, twice about 5 minutes and 6 hours after intraperitoneal infection, observation 7 days
[44] = NO.12, 168 h, mice, sc, twice about 5 minutes and 6 hours after intraperitoneal infection, observation 7 days
[45] = NO.50774, 336 h, mice, sc, twice about 5 minutes and 6 hours after intravenous infection, observation 14 days
[46] = 4AP330, Shigella flexneri 4a P-330, clinically isolated Cephalexin-resistant strain, in vitro, read-out: minimum inhibitory concentration (MIC)
[47] = Shigella flexneri 2a, clinically isolated Cephalexin-resistant strain, in vitro
[48] = P5101, 168 h, mice, sc, twice about 5 minutes and 6 hours after intraperitoneal infection, observation 7 days

Structure (SMILES)	MIC [2] [µg/mL]	MIC ([4]; Pseudomonas aeruginosa) [µg/mL]	MIC [5, 25] [µg/mL]	MIC ([7]; Staphylococcus aureus, 209P) [µg/mL]	MIC [8, 26] [µg/mL]	MIC ([14]; TYPHIMURIUM) [µg/mL]	solubility [16] [mg/mL]	MIC [21] [µg/mL]	MIC [1, 30] [µg/mL]	MIC [3, 32] [µg/mL]	MIC [6, 34] [µg/mL]	MIC [10, 38] [µg/mL]	MIC [11, 39] [µg/mL]	MIC [15, 42] [µg/mL]	ED50 [17, 43] [mg/kg]	ED50 [17, 44] [mg/kg]	ED50 [19, 45] [mg/kg]	MIC [20, 46] [µg/mL]	MIC [22, 47] [µg/mL]	ED50 [24, 48] [mg/kg]	other results
Cn1nnnc1SCC1=C(C(=O)[O-])N2C(=O)C(NC(=O)[C@H](NC(=O)c3c[nH]c4nc(N5CCNCC5)ncc4c3=O)c3ccc(O)cc3)[C@H]2SC1.[Na+] (some centres unmarked)	25	3.13	3.13	3.13	6.25	0.78	~0.5	1.56	–	–	–	–	–	–	–	–	–	–	–	–	MIC ([1]; ENTERITIDIS): 0.78 µg/mL; MIC ([3]; Serratia marcescens, IFO3736, read-out: minimum inhibitory concentration (MIC)): 6.25 µg/mL; MIC ([6]; Escherichia coli, P5101, read-out: minimum inhibitory concentration (MIC)): 0.78 µg/mL; MIC [9, 27]: 1.56 µg/mL; MIC ([10]; Corynebacterium, C21, read-out: minimum inhibitory concentration (MIC)): 6.25 µg/mL; MIC ([11]; Klebsiella pneumoniae, NO.13, read-out: minimum inhibitory concentration (MIC)): 0.78 µg/mL; MIC [12, 28]: 12.5 µg/mL; MIC [13, 29]: 6.25 µg/mL; MIC ([15]; Streptococcus, 65A): 0.2 µg/mL; Solubility in water (in words) [16]: extremely low solubility in water; ED50 ([17]; NO.12, po, 168 h): > 100 mg/kg; ED50 ([17]; NO.12, sc, 168 h): 4.8 mg/kg; LD50 at 168 h ([18]; ip): ~1500 mg/kg; ED50 ([19]; NO.50774, sc, 336 h): ~7.8 mg/kg; MIC ([20]; Shigella flexneri, 4AP330, read-out: minimum inhibitory concentration (MIC)): 12.5 µg/mL; MIC ([22]; Shigella flexneri, 2A): 0.78 µg/mL; antibacterial activity (in words) [23]: superior antibacterial activity as the compound of the present invention; ED50 ([24]; P5101, sc, 168 h): ~0.4 mg/kg
Cn1nnnc1SCC1=C(C(=O)O)N2C(=O)C(NC(=O)C(NC(=O)c3c[nH]c4nc(N5CCNCC5)ncc4c3=O)c3ccc(O)cc3)C2SC1 (centres unmarked)	–	–	–	–	–	–	–	–	–	–	–	–	–	–	–	–	–	–	–	–	Solubility in water (in words) [16]: soluble in deionized water in the same degree as compound A
Cc1nnc(SCC2=C(C(=O)O)N3C(=O)[C@@H](NC(=O)Cn4cnnn4)[C@H]3SC2)s1 [B, Cefazolin]	–	–	–	–	–	–	400 (≈ 880000 µM)	–	1.56 (≈ 3.43 µM)	> 200	1.56 (≈ 3.43 µM)	0.39 (≈ 0.858 µM)	3.13 (≈ 6.89 µM)	0.1 (≈ 0.22 µM)	> 100	> 800	0.2	> 200	3.13 (≈ 6.89 µM)	5.3	MIC [2, 31]: > 200 µg/mL; MIC ([4]; Pseudomonas aeruginosa Tsuchijima, in vitro): > 200 µg/mL; MIC [5, 33]: > 200 µg/mL; MIC [7, 35]: 0.2 µg/mL (≈ 0.44 µM); MIC [8, 36]: > 200 µg/mL; MIC [9, 37]: 1.56 µg/mL (≈ 3.43 µM); MIC [12, 40]: 6.25 µg/mL (≈ 13.8 µM); MIC [13, 41]: 0.2 µg/mL (≈ 0.44 µM); MIC ([14]; Salmonella typhimurium S-9, in vitro): 1.56 µg/mL (≈ 3.43 µM); minimum inhibitory concentration (MIC) [21]: > 200 µg/mL
O=CN1CCN(c2ncc3c(=O)c(C(=O)N[C@@H](C(=O)N[C@@H]4C(=O)N5C(C(=O)O)=C(CSc6nnnn6CC(=O)O)CS[C@H]45)c4ccc(O)cc4)c[nH]c3n2)CC1 [Compound 1, Disodium 7-{D-α-[5,8-dihydro-2-(4-formyl-1-piperazinyl)-5-oxopyrido[2,3-d]pyrimidine-6-carboxamido]-α-p-hydroxyphenylacetamido}-3-(1-carboxylatomethyl-1,2,3,4-tetrazol-5-yl)thiomethyl-3-cephem-4-carboxylate]	1.56	1.56	1.56	6.25	6.25	1.56	~400	1.56	0.78	3.13	0.78	3.13	1.56	0.2	> 100	4.8	13.1	6.25	1.56	1.5	MIC [9, 27]: 1.56 µg/mL; MIC [12, 40]: 0.78 µg/mL; MIC [13, 29]: 6.25 µg/mL; LD50 at 168 h ([18]; iv): > 2000 mg/kg
O=CN1CCN(c2ncc3c(=O)c(C(=O)N[C@@H](C(=O)N[C@@H]4C(=O)N5C(C(=O)O)=C(CSc6nnc(CC(=O)O)s6)CS[C@H]45)c4ccc(O)cc4)c[nH]c3n2)CC1 [Compound 2, Disodium 7-{D-α-[5,8-dihydro-2-(4-formyl-1-piperazinyl)-5-oxopyrido[2,3-d]pyrimidine-6-carboxamido]-α-p-hydroxyphenylacetamido}-3-(5-carboxylatomethyl-1,3,4-thiadiazol-2-yl)thiomethyl-3-cephem-4-carboxylate]	–	1.56	–	–	–	1.56	~150	1.56	0.78	6.25	0.78	3.13	1.56	0.1	> 100	9.6	11.5	12.5	1.56	2.5	MIC [2, 31]: 3.13 µg/mL; MIC [5, 33]: 3.13 µg/mL; MIC [7, 35]: 6.25 µg/mL; MIC [8, 36]: 6.25 µg/mL; MIC [9, 37]: 0.78 µg/mL; MIC [12, 28]: 1.56 µg/mL; MIC [13, 41]: 6.25 µg/mL; LD50 at 168 h ([18]; male mice (ddY), iv, after 7 days): > 2000 mg/kg
